Measured values taken from patent US8952157B2, “Apoptosis-inducing agents for the treatment of cancer and immune and autoimmune diseases” (AbbVie Inc., priority 2008, dated 2015).

The compounds below were run against GST-Bcl-2 (Homo sapiens (Human), UniProt P10415) (assay: Time Resolved-Fluorescence Resonance Energy Transfer (TR-FRET) Bcl-2 binding assay). Settings: GST-Bcl-2 1 nM, F-Bak peptide probe 100 nM, Tb-anti-GST antibody 1 nM; Ki by Wang's equation.
Outline: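 Ki values derived from TR-FRET displacement of F-Bak peptide from GST-Bcl-2, detected with Tb-labelled anti-GST antibody (ex 340, em 520/495 nm). Compound dilution series started at 50 μM (2× starting concentration); room-temperature incubation 3 hours.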

GST-Bcl-2, sequence (P10415 whole entry): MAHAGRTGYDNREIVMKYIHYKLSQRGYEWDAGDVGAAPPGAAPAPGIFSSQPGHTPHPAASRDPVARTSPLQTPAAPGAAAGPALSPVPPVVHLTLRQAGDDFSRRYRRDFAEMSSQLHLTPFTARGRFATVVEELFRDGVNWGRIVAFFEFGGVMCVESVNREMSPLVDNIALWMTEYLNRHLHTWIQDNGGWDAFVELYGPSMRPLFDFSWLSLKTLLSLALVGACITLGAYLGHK

| SMILES | Ki |
| --- | --- |
| CC(C)(C)OC(=O)N1CCN(c2cccc(Oc3cc(N4CCN(Cc5ccccc5-c5ccc(Cl)cc5)CC4)ccc3C(=O)NS(=O)(=O)c3ccc(NCC4CCOCC4)c([N+](=O)[O-])c3)c2)CC1 [Example 91, tert-butyl 4-(3-(5-(4-((4′-chloro-1,1′-biphenyl-2-yl)methyl)piperazin-1-yl)-2-((((3-nitro-4-((tetrahydro-2H-pyran-4-ylmethyl)amino)phenyl)sulfonyl)amino)carbonyl)phenoxy)phenyl)piperazine-1-carboxylate] | > 1200 nM |
| CN(C)CCCNc1ccc(S(=O)(=O)NC(=O)c2ccc(N3CCN(Cc4ccccc4-c4ccc(Cl)cc4)CC3)cc2Oc2cccc(OCc3ccccc3)c2)cc1[N+](=O)[O-] [Example 92, 2-(3-(benzyloxy)phenoxy)-4-(4-((4′-chloro-1,1′-biphenyl-2-yl)methyl)piperazin-1-yl)-N-((4-((3-(dimethylamino)propyl)amino)-3-nitrophenyl)sulfonyl)benzamide] | 2.57 nM |
| O=C(NS(=O)(=O)c1ccc(NCCCN2CCOCC2)c([N+](=O)[O-])c1)c1ccc(N2CCN(Cc3ccccc3-c3ccc(Cl)cc3)CC2)cc1Oc1cccc(OCc2ccccc2)c1 [Example 93, 2-(3-(benzyloxy)phenoxy)-4-(4-((4′-chloro-1,1′-biphenyl-2-yl)methyl)piperazin-1-yl)-N-((4-((3-morpholin-4-ylpropyl)amino)-3-nitrophenyl)sulfonyl)benzamide] | 16.8 nM |
| O=C(NS(=O)(=O)c1ccc(NCC2CCOCC2)c([N+](=O)[O-])c1)c1ccc(N2CCN(Cc3ccccc3-c3ccc(Cl)cc3)CC2)cc1Oc1ccc(OCCN2CCOCC2)cc1 [Example 94, 4-(4-((4′-chloro-1,1′-biphenyl-2-yl)methyl)piperazin-1-yl)-2-(4-(2-morpholin-4-ylethoxy)phenoxy)-N-((3-nitro-4-((tetrahydro-2H-pyran-4-ylmethyl)amino)phenyl)sulfonyl)benzamide] | 561 nM |
| O=C1CCc2c(cccc2Oc2cc(N3CCN(Cc4ccccc4-c4ccc(Cl)cc4)CC3)ccc2C(=O)NS(=O)(=O)c2ccc(NCC3CCOCC3)c([N+](=O)[O-])c2)N1 [Example 95, 4-(4-((4′-chloro-1,1′-biphenyl-2-yl)methyl)piperazin-1-yl)-N-((3-nitro-4-((tetrahydro-2H-pyran-4-ylmethyl)amino)phenyl)sulfonyl)-2-((2-oxo-1,2,3,4-tetrahydroquinolin-5-yl)oxy)benzamide] | 0.428 nM |
| O=C(NS(=O)(=O)c1ccc(NCCCN2CCOCC2)c([N+](=O)[O-])c1)c1ccc(N2CCN(Cc3ccccc3-c3ccc(Cl)cc3)CC2)cc1Oc1ccc(OCc2ccccc2)cc1 [Example 96, 2-(4-(benzyloxy)phenoxy)-4-(4-((4′-chloro-1,1′-biphenyl-2-yl)methyl)piperazin-1-yl)-N-((4-((3-morpholin-4-ylpropyl)amino)-3-nitrophenyl)sulfonyl)benzamide] | > 1200 nM |
| CC(C)(C)OC(=O)N1CCN(c2ccc(Oc3cc(N4CCN(Cc5ccccc5-c5ccc(Cl)cc5)CC4)ccc3C(=O)NS(=O)(=O)c3ccc(NCCCN4CCOCC4)c([N+](=O)[O-])c3)cc2)CC1 [Example 97, tert-butyl 4-(4-(5-(4-((4′-chloro-1,1′-biphenyl-2-yl)methyl)piperazin-1-yl)-2-((((4-((3-morpholin-4-ylpropyl)amino)-3-nitrophenyl)sulfonyl)amino)carbonyl)phenoxy)phenyl)piperazine-1-carboxylate] | 147 nM |
| O=C(NS(=O)(=O)c1ccc(NCCCN2CCOCC2)c([N+](=O)[O-])c1)c1ccc(N2CCN(Cc3ccccc3-c3ccc(Cl)cc3)CC2)cc1Oc1cccc(-c2ccncc2)c1 [Example 98, 4-(4-((4′-chloro-1,1′-biphenyl-2-yl)methyl)piperazin-1-yl)-N-((4-((3-morpholin-4-ylpropyl)amino)-3-nitrophenyl)sulfonyl)-2-(3-pyridin-4-ylphenoxy)benzamide] | 0.959 nM |
| O=C(NS(=O)(=O)c1ccc(NCCCN2CCOCC2)c([N+](=O)[O-])c1)c1ccc(N2CCN(Cc3ccccc3-c3ccc(Cl)cc3)CC2)cc1Oc1ccc(-c2ccncc2)cc1 [Example 99, 4-(4-((4′-chloro-1,1′-biphenyl-2-yl)methyl)piperazin-1-yl)-N-((4-((3-morpholin-4-ylpropyl)amino)-3-nitrophenyl)sulfonyl)-2-(4-pyridin-4-ylphenoxy)benzamide] | 71.4 nM |
| O=C(NS(=O)(=O)c1ccc(NCCCN2CCOCC2)c([N+](=O)[O-])c1)c1ccc(N2CCN(Cc3ccccc3-c3ccc(Cl)cc3)CC2)cc1Oc1ccc(-c2cccnc2)cc1 [Example 100, 4-(4-((4′-chloro-1,1′-biphenyl-2-yl)methyl)piperazin-1-yl)-N-((4-((3-morpholin-4-ylpropyl)amino)-3-nitrophenyl)sulfonyl)-2-(4-pyridin-3-ylphenoxy)benzamide] | 113 nM |
| CN(C)C(=O)COc1ccc(Oc2cc(N3CCN(Cc4ccccc4-c4ccc(Cl)cc4)CC3)ccc2C(=O)NS(=O)(=O)c2ccc(NCC3CCOCC3)c([N+](=O)[O-])c2)cc1 [Example 101, 4-(4-((4′-chloro-1,1′-biphenyl-2-yl)methyl)piperazin-1-yl)-2-(4-(2-(dimethylamino)-2-oxoethoxy)phenoxy)-N-((3-nitro-4-((tetrahydro-2H-pyran-4-ylmethyl)amino)phenyl)sulfonyl)benzamide] | 670 nM |
| Cn1cnc2cc(Oc3cc(N4CCN(Cc5ccccc5-c5ccc(Cl)cc5)CC4)ccc3C(=O)NS(=O)(=O)c3ccc(NCCCN4CCOCC4)c([N+](=O)[O-])c3)ccc21 [Example 102, 4-(4-((4′-chloro-1,1′-biphenyl-2-yl)methyl)piperazin-1-yl)-2-((1-methyl-1H-benzimidazol-5-yl)oxy)-N-((4-((3-morpholin-4-ylpropyl)amino)-3-nitrophenyl)sulfonyl)benzamide] | 43.5 nM |
| CNC(=O)c1cccc(Oc2cc(N3CCN(Cc4ccccc4-c4ccc(Cl)cc4)CC3)ccc2C(=O)NS(=O)(=O)c2ccc(NCCCN3CCOCC3)c([N+](=O)[O-])c2)c1 [Example 103, 4-(4-((4′-chlorobiphenyl-2-yl)methyl)piperazin-1-yl)-2-(3-(methylcarbamoyl)phenoxy)-N-(4-(3-morpholinopropylamino)-3-nitrophenylsulfonyl)benzamide] | 6.75 nM |
| CNC(=O)c1cccc(Oc2cc(N3CCN(Cc4ccccc4-c4ccc(Cl)cc4)CC3)ccc2C(=O)NS(=O)(=O)c2ccc(NCCCN(C)C)c([N+](=O)[O-])c2)c1 [Example 104, 4-(4-((4′-chlorobiphenyl-2-yl)methyl)piperazin-1-yl)-N-(4-(3-(dimethylamino)propylamino)-3-nitrophenylsulfonyl)-2-(3-(methylcarbamoyl)phenoxy)benzamide] | 2.32 nM |
| CN(C)C(=O)COc1cccc(Oc2cc(N3CCN(Cc4ccccc4-c4ccc(Cl)cc4)CC3)ccc2C(=O)NS(=O)(=O)c2ccc(NCC3CCOCC3)c([N+](=O)[O-])c2)c1 [Example 105, 4-(4-((4′-chloro-1,1′-biphenyl-2-yl)methyl)piperazin-1-yl)-2-(3-(2-(dimethylamino)-2-oxoethoxy)phenoxy)-N-((3-nitro-4-((tetrahydro-2H-pyran-4-ylmethyl)amino)phenyl)sulfonyl)benzamide] | 3.57 nM |
